According to ChEMBL document CHEMBL4673372, “1,2,3-triazole-thiazole hybrids: Synthesis, in vitro antimicrobial activity and antibiofilm studies” (Bioorg Med Chem Lett, 2021):
Values after ≈ are worked out from the molar mass of the structure shown.

Assays:
[1] = Selectivity index, ratio of CC50 for human THP-1 cells to MIC for Staphylococcus aureus MTCC 96; assay type: toxicity
[2] = Cytotoxicity against human THP-1 cells; assay type: cell-based
THP-1 [3] = test: Cytotoxicity against human THP-1 cells assessed as cell damage at 200 uM by LDH assay; assay type: cell-based; details: thp-1, 200 µM
THP-1 [4] = test: Cytotoxicity against human THP-1 cells assessed as reduction in cell viability at 200 uM by MTT assay; assay type: cell-based; details: thp-1, 200 µM
Bacillus subtilis [5] = test: Bactericidal activity against Bacillus subtilis MTCC 121; assay type: functional
Staphylococcus aureus [6] = test: Bactericidal activity against Staphylococcus aureus MTCC 96; assay type: functional
Pseudomonas aeruginosa [7] = test: Antibacterial activity against Pseudomonas aeruginosa MTCC 2453 assessed as inhibition of bacterial growth by microtiter broth dilution method; assay type: functional
Escherichia coli [8] = test: Antibacterial activity against Escherichia coli MTCC 739 assessed as inhibition of bacterial growth by microtiter broth dilution method; assay type: functional
Raoultella planticola [9] = test: Antibacterial activity against Klebsiella planticola MTCC 530 assessed as inhibition of bacterial growth by microtiter broth dilution method; assay type: functional
Micrococcus luteus [10] = test: Antibacterial activity against Micrococcus luteus MTCC 2470 assessed as inhibition of bacterial growth by microtiter broth dilution method; assay type: functional
Bacillus subtilis [11] = test: Antibacterial activity against Bacillus subtilis MTCC 121 assessed as inhibition of bacterial growth by microtiter broth dilution method; assay type: functional
Staphylococcus aureus [12] = test: Antibacterial activity against Staphylococcus aureus MLS16 MTCC 2940 assessed as inhibition of bacterial growth by microtiter broth dilution method; assay type: functional
Staphylococcus aureus [13] = test: Antibacterial activity against Staphylococcus aureus MTCC 96 assessed as inhibition of bacterial growth by microtiter broth dilution method; assay type: functional
Candida albicans [14] = test: Inhibition of biofilm formation in Candida albicans MTCC 3017 incubated for 24 hrs by crystal violet staining based microtiter plate method; assay type: functional, organism-based
Pseudomonas aeruginosa [15] = test: Inhibition of biofilm formation in Pseudomonas aeruginosa MTCC 2453 incubated for 24 hrs by crystal violet staining based microtiter plate method; assay type: functional, organism-based
Escherichia coli [16] = test: Inhibition of biofilm formation in Escherichia coli MTCC 739 incubated for 24 hrs by crystal violet staining based microtiter plate method; assay type: functional, organism-based
Raoultella planticola [17] = test: Inhibition of biofilm formation in Klebsiella planticola MTCC 530 incubated for 24 hrs by crystal violet staining based microtiter plate method; assay type: functional, organism-based
Micrococcus luteus [18] = test: Inhibition of biofilm formation in Micrococcus luteus MTCC 2470 incubated for 24 hrs by crystal violet staining based microtiter plate method; assay type: functional, organism-based
Bacillus subtilis [19] = test: Inhibition of biofilm formation in Bacillus subtilis MTCC 121 incubated for 24 hrs by crystal violet staining based microtiter plate method; assay type: functional, organism-based
Staphylococcus aureus [20] = test: Inhibition of biofilm formation in Staphylococcus aureus MLS16 MTCC 2940 incubated for 24 hrs by crystal violet staining based microtiter plate method; assay type: functional, organism-based
Staphylococcus aureus [21] = test: Inhibition of biofilm formation in Staphylococcus aureus […] incubated for 24 hrs by crystal violet staining based microtiter plate method; assay type: functional, organism-based
Pichia sporocuriosa = test: Antifungal activity against Issatchenkia hanoiensis MTCC 4755; assay type: functional
Pichia kudriavzevii = test: Antifungal activity against Candida krusei MTCC 3020; assay type: functional
Nakaseomyces glabratus = test: Antifungal activity against Candida glabrata MTCC 3019; assay type: functional
[Candida] aaseri = Antifungal activity against Candida aaseri MTCC 1962; assay type: functional; details: Yamadazyma aaseri
Candida parapsilosis = test: Antifungal activity against Candida parapsilosis MTCC 1745; assay type: functional; details: Lodderomyces parapsilosis
Candida albicans [22] = test: Antifungal activity against Candida albicans MTCC 4748; assay type: functional
Candida albicans [23] = test: Antifungal activity against Candida albicans MTCC 3958; assay type: functional
Candida albicans [24] = test: Antifungal activity against Candida albicans MTCC 3018; assay type: functional
Candida albicans [25] = test: Antifungal activity against Candida albicans MTCC 1637; assay type: functional
Candida albicans [26] = test: Antifungal activity against Candida albicans MTCC 854; assay type: functional
Candida albicans [27] = test: Fungicidal activity against Candida albicans MTCC 183; assay type: functional
Candida albicans [28] = test: Antifungal activity against Candida albicans MTCC 227; assay type: functional
Candida albicans [29] = test: Antifungal activity against Candida albicans MTCC 183; assay type: functional
Escherichia coli [30] = test: Bactericidal activity against Escherichia coli MTCC 739; assay type: functional
Micrococcus luteus [31] = test: Bactericidal activity against Micrococcus luteus MTCC 2470; assay type: functional

Compound	selectivity ratio [1]	CC50 [2] [µM]	Activity (THP-1 [3])	Activity (THP-1 [4])	MBC (Bacillus subtilis [5]) [µM]	MBC (Staphylococcus aureus [6]) [µM]	MIC (Pseudomonas aeruginosa [7]) [µM]	MIC (Escherichia coli [8]) [µM]	MIC (Raoultella planticola [9]) [µM]	MIC (Micrococcus luteus [10]) [µM]	MIC (Bacillus subtilis [11]) [µM]	MIC (Staphylococcus aureus [12]) [µM]	MIC (Staphylococcus aureus [13]) [µM]	IC50 (Candida albicans [14])	IC50 (Escherichia coli [16])	IC50 (Raoultella planticola [17])	IC50 (Staphylococcus aureus [20])	IC50 (Staphylococcus aureus [21])	other results
COc1ccc(-n2cc(COc3ccc(/C=N/Nc4nc(-c5ccc(-c6ccccc6)cc5)cs4)cc3)nn2)cc1	2.58	35.8	Toxic	Toxic	27.9 (≈ 15.6 µg/mL)	27.9 (≈ 15.6 µg/mL)	> 224	> 224	> 224	> 224	13.9 (≈ 7.77 µg/mL)	> 224	13.9 (≈ 7.77 µg/mL)						
COc1ccc(-n2cc(COc3ccc(/C=N/Nc4nc(-c5ccccc5)cs4)cc3)nn2)cc1							> 259	> 259	> 259	> 259	> 259	> 259	> 259						
COc1ccc(-n2cc(COc3ccc(/C=N/Nc4nc(-c5cc6cc([N+](=O)[O-])cc([N+](=O)[O-])c6oc5=O)cs4)cc3)nn2)cc1							> 195	> 195	> 195	> 195	> 195	> 195	> 195	Not Active	Not Active	Not Active	Not Active	Not Active	IC50 (Pseudomonas aeruginosa [15]): Not Active; IC50 (Micrococcus luteus [18]): Not Active; IC50 (Bacillus subtilis [19]): Not Active; MIC (Pichia sporocuriosa): > 195 µM; MIC (Pichia kudriavzevii): > 195 µM; MIC (Nakaseomyces glabratus): > 195 µM; MIC ([Candida] aaseri): > 195 µM; MIC (Candida parapsilosis): > 195 µM; MIC (Candida albicans [22]): > 195 µM; MIC (Candida albicans [23]): > 195 µM; MIC (Candida albicans [24]): > 195 µM; MIC (Candida albicans [25]): > 195 µM; MIC (Candida albicans [26]): > 195 µM; MFC (Candida albicans [27]): 12.2 µM (≈ 7.82 µg/mL); MIC (Candida albicans [28]): > 195 µM; MFC (Candida albicans [29]): 12.2 µM (≈ 7.82 µg/mL); MIC (Candida albicans [29]): 6.1 µM (≈ 3.91 µg/mL)
COc1ccc(-c2csc(N/N=C/c3ccc(OCc4cn(-c5ccc(OC)cc5)nn4)cc3)n2)cc1	5.13	39	Toxic	Toxic	30.4 (≈ 15.6 µg/mL)	30.4 (≈ 15.6 µg/mL)	> 244	> 244	> 244	> 244	7.6 (≈ 3.9 µg/mL)	> 244	7.6 (≈ 3.9 µg/mL)						
COc1ccc(-n2cc(COc3ccc(/C=N/Nc4nc(-c5ccc(Cl)cc5)cs4)cc3)nn2)cc1	2.58	38.7	Toxic	Toxic		30.2 (≈ 15.6 µg/mL)	> 242	> 242	> 242	> 242	> 242	> 242	15 (≈ 7.76 µg/mL)						
COc1ccc(-n2cc(COc3ccc(/C=N/Nc4nc(-c5cc6cc(Br)cc(Br)c6oc5=O)cs4)cc3)nn2)cc1					11 (≈ 7.79 µg/mL)		> 176	5.5 (≈ 3.9 µg/mL)	> 176	5.5 (≈ 3.9 µg/mL)	5.5 (≈ 3.9 µg/mL)	> 176	> 176	Not Active	Not Active	Not Active	Not Active	Not Active	IC50 (Pseudomonas aeruginosa [15]; Pseudomonas aeruginosa, MTCC 2453, 24 h, read-out: IC50): 110 µM; IC50 (Micrococcus luteus [18]; Micrococcus luteus, MTCC 2470, 24 h, read-out: IC50): 45.1 µM; IC50 (Bacillus subtilis [19]; Bacillus subtilis, MTCC 121, 24 h, read-out: IC50): 42.6 µM; MBC (Escherichia coli [30]): 11 µM (≈ 7.79 µg/mL); MBC (Micrococcus luteus [31]): 11 µM (≈ 7.79 µg/mL)
CCOc1cccc2cc(-c3csc(N/N=C/c4ccc(OCc5cn(-c6ccc(OC)cc6)nn5)cc4)n3)c(=O)oc12							> 210	> 210	> 210	> 210	> 210	> 210	> 210	Not Active	Not Active	Not Active	Not Active	Not Active	IC50 (Pseudomonas aeruginosa [15]): Not Active; IC50 (Micrococcus luteus [18]): Not Active; IC50 (Bacillus subtilis [19]): Not Active
